According to patent US6793943B2, “Health food products” (priority 2000, dated 2004):

What was measured:
[1] = preliminary administration experiment; format: in vivo; conditions: several persons who ingested the substance alone
[2] = administration of three kinds of samples for 2 months to groups of 30 persons; format: in vivo; conditions: numbers of the persons; administered for 2 months; group of 30 persons
From the text: (a) a sample of cholic acid alone,
(b) a sample of soybean isoflavone glycoside alone, and
were each administered for 2 months to each group containing 30 persons to be tested.

For `C[C@H](CCC(=O)O)[C@H]1CC[C@H]2[C@@H]3[C@H](O)C[C@@H]4C[C@H](O)CC[C@]4(C)[C@H]3C[C@H](O)[C@]12C` [cholic acid], the “troubles by drinking an alcoholic beverage” value [1] was “ameliorated”, the “Alcoholic beverage tasted good” value [2] was 8 Persons and the Evacuation became easy [2] was 1 Person Persons. For the same compound, the Feces amount increased [2] was “No Person”, the No hangover noted [2] was 4 Persons and the “Significantly recovered from fatigue” value [2] was “No Person”.
